Results published in patent US7863280B2, “Substituted 2-pyridone derivatives, method for their preparation and their use as medicament” (Sanofi-Aventis Deutschland GmbH, priority 2004, dated 2011).

Target: recombinantly expressed human PARP-1 enzyme (Homo sapiens, UniProt P09874)
Assay: PARP enzyme assay
Assay type: biochemical
Details: DNA-activated PARP-1, 200 μM NAD, tritium-labeled NAD incorporation, pH=8.0, room temperature, 1 hour
Experimental: Pharmacological Investigations PARP Enzyme Assay
The half-maximum inhibitor concentration is determined by incubating the substances to be tested with the DNA-activated, recombinantly expressed and purified PARP-1 enzyme. Specifically, various concentrations of the test substance are incubated in 50 μl of reaction solution, which contains 50 mM Tris, 5 mM MgCl2, 1 mM DTT, 200 μM NAD, 0.1 mCi/ml tritium-labeled NAD, 0.1 mg/ml DNA, 0.1 mg/ml histones, 2 μg/ml recombinantly expressed human PARP-1 enzyme, pH=8.0, at room temperature for 1 hour. The reaction is stopped by adding 150 μl of 20% trichloroacetic acid, and the radiolabelled protein constituents are precipitated. After incubation on ice for 10 minutes, the labeled, insoluble constituents are separated off through a glass fiber filter and, after washing with 20% trichloroacetic acid three times, the radioactivity incorporated by the PARP-1 enzyme is measured by radioluminescence. Consideration of the incorporation rates determined in this way as a function of the concentration of the test substance results in the half-maximum inhibitor concentration (IC50) as the concentration of the test substance which reduces the incorporation rate to half the maximum value attainable (incubation without inhibitor).

Chain of recombinantly expressed human PARP-1 enzyme (P09874 whole entry): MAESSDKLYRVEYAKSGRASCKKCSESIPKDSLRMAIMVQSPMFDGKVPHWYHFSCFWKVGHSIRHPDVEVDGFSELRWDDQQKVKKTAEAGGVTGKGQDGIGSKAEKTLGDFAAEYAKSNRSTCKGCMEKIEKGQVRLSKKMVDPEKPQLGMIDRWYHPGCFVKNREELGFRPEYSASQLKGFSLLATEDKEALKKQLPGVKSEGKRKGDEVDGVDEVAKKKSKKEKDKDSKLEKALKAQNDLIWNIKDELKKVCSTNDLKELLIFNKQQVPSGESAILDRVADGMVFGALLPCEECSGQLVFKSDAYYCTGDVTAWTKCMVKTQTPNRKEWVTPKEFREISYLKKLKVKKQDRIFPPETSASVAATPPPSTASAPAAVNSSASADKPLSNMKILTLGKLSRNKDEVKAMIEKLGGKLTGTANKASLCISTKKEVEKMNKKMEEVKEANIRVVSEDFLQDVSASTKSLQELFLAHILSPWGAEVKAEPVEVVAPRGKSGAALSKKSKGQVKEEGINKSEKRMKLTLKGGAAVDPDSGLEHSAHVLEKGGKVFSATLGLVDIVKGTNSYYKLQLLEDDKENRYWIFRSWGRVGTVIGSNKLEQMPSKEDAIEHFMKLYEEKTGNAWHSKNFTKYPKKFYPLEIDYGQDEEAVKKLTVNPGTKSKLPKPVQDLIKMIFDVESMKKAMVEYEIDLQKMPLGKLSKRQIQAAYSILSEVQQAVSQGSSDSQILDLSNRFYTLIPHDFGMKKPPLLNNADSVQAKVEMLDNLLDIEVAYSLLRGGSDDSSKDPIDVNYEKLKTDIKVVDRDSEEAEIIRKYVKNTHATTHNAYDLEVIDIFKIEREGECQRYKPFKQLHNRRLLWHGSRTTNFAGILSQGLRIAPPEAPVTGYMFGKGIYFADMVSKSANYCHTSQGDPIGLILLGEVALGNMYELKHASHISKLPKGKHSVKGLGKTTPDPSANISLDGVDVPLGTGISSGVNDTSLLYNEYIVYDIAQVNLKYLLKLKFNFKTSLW

| SMILES | IC50 |
| --- | --- |
| CCc1cc(Nc2cccc(C#N)c2)c(C)[nH]c1=O [Example 1, 3-(5-ethyl-2-methyl-6-oxo-1,6-dihydropyridin-3-ylamino)benzonitrile] | 9 µM |
| CCc1cc(Nc2cccc(C(N)=O)c2)c(C)[nH]c1=O [Example 2, 3-(5-ethyl-2-methyl-6-oxo-1,6-dihydropyridin-3-ylamino)benzamide] | 2.2 µM |
| CCc1cc(Nc2cccc(C(C)=O)c2)c(C)[nH]c1=O [Example 3, 5-(3-acetylphenylamino)-3-ethyl-6-methyl-1H-pyridin-2-one] | 1.3 µM |
| CCc1cc(Nc2cccc(NC(C)=O)c2)c(C)[nH]c1=O [Example 4, N-[3-(5-ethyl-2-methyl-6-oxo-1,6-dihydropyridin-3-ylamino)phenyl]acetamide] | 0.8 µM |
| CCc1cc(Nc2ccc(S(N)(=O)=O)cc2)c(C)[nH]c1=O [Example 6, 4-(5-ethyl-2-methyl-6-oxo-1,6-dihydropyridin-3-ylamino)benzenesulfonamide] | 9.8 µM |
| CCc1cc(Nc2ccc(Oc3cccnc3)cc2)c(C)[nH]c1=O [Example 7, 3-ethyl-6-methyl-5-[4-(pyridin-3-yloxy)phenylamino]-1H-pyridin-2-one] | 4.7 µM |
| CCc1cc(Nc2ccc3c(c2)N(C(C)=O)CC3)c(C)[nH]c1=O [Example 9, 5-(1-acetyl-2,3-dihydro-1H-indol-6-ylamino)-3-ethyl-6-methyl-1H-pyridin-2-one] | 3.4 µM |
| CCc1cc(Nc2ccc(S(=O)(=O)Nc3ccccn3)cc2)c(C)[nH]c1=O [Example 10, 4-(5-ethyl-2-methyl-6-oxo-1,6-dihydropyridin-3-ylamino)-N-pyridin-2-yl-benzenesulfonamide] | 6.2 µM |
| CCc1cc(Nc2ccc(NC(C)=O)cn2)c(C)[nH]c1=O [Example 12, N-[6-(5-ethyl-2-methyl-6-oxo-1,6-dihydropyridin-3-ylamino)pyridin-3-yl]-acetamide] | 1.1 µM |
| CCc1cc(Nc2ccc(C#N)cn2)c(C)[nH]c1=O [Example 13, 6-(5-ethyl-2-methyl-6-oxo-1,6-dihydropyridin-3-ylamino)nicotinonitrile] | 3.9 µM |
| CCc1cc(Nc2ccncc2)c(C)[nH]c1=O [Example 15, 3-ethyl-6-methyl-5-(pyridin-4-ylamino)-1H-pyridin-2-one] | 9.5 µM |
| CCc1cc(Nc2ccc(C(C)=O)cc2)c(C)[nH]c1=O [Example 18, 5-(4-acetylphenylamino)-3-ethyl-6-methyl-1H-pyridin-2-one] | 4.4 µM |
| CCc1cc(Nc2cccnc2)c(C)[nH]c1=O [Example 19, 3-ethyl-6-methyl-5-(pyridin-3-ylamino)-1H-pyridin-2-one] | 9.2 µM |
| CCc1cc(Oc2cccc(OC)c2)c(C)[nH]c1=O [Example 20, 3-ethyl-5-(3-methoxyphenoxy)-6-methyl-1H-pyridin-2-one] | 4.8 µM |
| CCc1cc(Nc2cccc(CO)c2)c(C)[nH]c1=O [Example 23, 3-ethyl-5-(3-hydroxymethylphenylamino)-6-methyl-1H-pyridin-2-one] | 9.8 µM |
| CCc1cc(Nc2cccc(S(C)(=O)=O)c2)c(C)[nH]c1=O [Example 24, 3-ethyl-5-(3-methanesulfonylphenylamino)-6-methyl-1H-pyridin-2-one] | 6.1 µM |
